The source of these data is publication PMC12153294 (mBio, 2025).

Series [1] in a line: AlphaScreen counter screen with Bn-His6 control peptide. The settings on record: same figure table as Mac1 IC50 (μM), NI not defined; for IC50: Bn-His peptide control, unit inferred. As to the method: The AlphaScreen reactions were carried out in 384-well plates (Alphaplate, PerkinElmer, Waltham, MA) in a total volume of 40 µL in buffer containing 25 mM HEPES (pH 7.4), 100 mM NaCl, 0.5 mM TCEP, 0.1% BSA, and 0.05% CHAPS. All reagents were prepared as 4× stocks, and 10 µL of each reagent was added to a final volume of 40 µL. All compounds were transferred acoustically using ECHO 555 (Beckman Inc) and preincubated after mixing with purified His-tagged macrodomain protein (250 nM) for 30 min at RT, followed by the addition of a 10 amino acid biotinylated and ADP-ribosylated peptide [ARTK(Bio) QTARK (Aoa-RADP)S] (Cambridge peptides) (625 nM). After 1 h incubation at RT, streptavidin-coated donor beads (7.5 µg/mL) and nickel chelate acceptor beads (7.5 µg/mL) (PerkinElmer AlphaScreen Histidine Detection Kit) were added under low light conditions, and plates were shaken at 400 rpm for 60 min at RT protected from light. Plates were kept covered and protected from light at all steps and read on the BioTek plate reader using an AlphaScreen 680 excitation/570 emission filter set. For counter screening of the compounds, 25 nM biotinylated and hexahistidine-tagged linker peptide (Bn-His6) (PerkinElmer) was added to the compounds, followed by the addition of beads as described above. For data analysis, the percent inhibition was normalized to positive (DMSO+ labeled peptide) and negative (DMSO + macrodomain + peptide, no ADPr) controls. The IC50 values were calculated via four-parametric non-linear regression analysis, constraining bottom (=0), top (=100), & Hillslope (=1) for all curves.

A further series relates to Mac1. To be noted: cited from earlier work.
The target of series [2] is T1, SARS-CoV-2 Mac1 (Severe acute respiratory syndrome coronavirus 2, UniProt P0DTD1). Description: biochemical. The settings on record: inhibition of Mac1 binding to ADP-ribosylated peptide; average of 2 independent experiments; read-out: Mac1 IC50 (AlphaScreen assay).
The nature of series [3]: LogD determination, shake-flask method. It counts as physicochemical. The settings on record: octanol/PBS, pH 7.4. The method, then: In total, 0.11 mg of each compound was weighed out into 2 mL centrifuge tubes; 1 mL of octanol-saturated PBS or 0.1M HCl was added to each centrifuge tube and vortexed to dissolve. Then, 0.5–1.0 mL of the PBS-saturated octanol was added to the 0.5–1.0 mL octanol-saturated PBS supernatant and vortexed. Next, 100 μL of the octanol-saturated PBS phase from each centrifuge tube was added to separate UPLC vials; 100 μL of 50:50 MP H2O:ACN was added to each vial and vortexed. The remaining octanol-saturated PBS layer was removed from the vial using a micropipette and stored in a separate vial, and 100 μL of the PBS-saturated octanol layer from each centrifuge tube was added to separate UPLC vials. In total, 100 μL of 50:50 MP H2O:ACN was added to each vial and vortexed. These procedures were repeated in triplicate and then analyzed by UPLC/UV-VIS.

The target of series [4] is T1, SARS-CoV-2 Mac1. The series is described as follows: Differential scanning fluorimetry (DSF) thermal shift assay. It counts as binding. To be noted: thermal stability of SARS-CoV-2 Mac1, increasing compound concentrations. As to the method:
Thermal shift assay with DSF involved the use of LightCycler 480 Instrument (Roche Diagnostics). In total, a 15 µL mixture containing 8 × SYPRO Orange (Invitrogen) and 10 µM macrodomain protein in buffer containing 20 mM HEPES-NaOH, pH 7.5, and various concentrations of ADP-ribose or hit compounds was mixed on ice in a 384-well PCR plate (Roche). Fluorescent signals were measured from 25 to 95°C in 0.2°C/30/S steps (excitation, 470–505 nm; detection, 540–700 nm). The main measurements were carried out in triplicate. Data evaluation and Tm determination involved the use of the Roche LightCycler 480 Protein Melting Analysis software, and data fitting calculations involved the use of single-site binding curve analysis on GraphPad Prism. The thermal shift (ΔTm) was calculated by subtracting the Tm values of the DMSO from the Tm values of the compounds.

Another series concerns JHMV-nLuc. It counts as cell-based, murine hepatitis virus (MHV).
For a further series, the system named is DBT cells. Description: Cell viability, MTT assay, DBT cells. It is filed as cell-based. To be noted: concentrations tested. As to the method:
(§1) Delayed brain tumor (DBT), L929, and Calu3 Cellular metabolic activity was assessed using a CyQUANT MTT cell proliferation assay (Thermo Fisher Scientific) by following the manufacturer’s instructions.

Another series deals with L929 cells. The series is described as follows: Cell viability, MTT assay, L929 cells. It is filed as cell-based. The settings on record: concentrations tested. The method, then:
as §1

Series [5] has as its system JHMV. Description: microbe, parasite or virus in culture. It counts as cell-based, murine hepatitis virus (MHV). To be noted: for Concentration at which infectious virus production was inhibited: lowest effective concentration tested.
In series [6] the test system is JHMV. It is filed as cell-based, murine hepatitis virus (MHV). To be noted: 150 μM.
The test system of series [7] is JHMV-WT. The series is described as follows: microbe, parasite or virus in culture. It counts as cell-based, murine hepatitis virus (MHV). To be noted: for Inhibition of MHV, dose-response: 50 to 200 μM, stated for both DBT and L929 cells, better activity on DBT.
The test system of series [8] is JHMV-WT. Description: microbe, parasite or virus in culture. It is filed as cell-based, murine hepatitis virus (MHV). The settings on record: for EC50: Murine coronavirus, read-out: EC50, % JHMV-WT inhibition on DBT cells.
Series [9] concerns SARS-CoV-2 (Wuhan strain). The series is described as follows: microbe, parasite or virus in culture. It counts as cell-based. The settings on record: for EC50: Severe acute respiratory syndrome coronavirus 2, Calu-3, presence of IFN-γ, estimated from fold reductions, read-out: EC50 against SARS-CoV-2.
The next series has as its system MERS-CoV. It is filed as cell-based.
The next series deals with Calu-3 cells. The series is described as follows: Cell viability, MTT assay, Calu-3 cells. It counts as cell-based. As to the method: as §1
For series [10] the following is noted: read-out: Reported EC50; cited from earlier work.
Where [11] appears, read: Calu-3, IFN-γ pre-treated (100 U), 12.5 μM.
The mark [12] stands for this setting: Calu-3, IFN-γ pre-treated (100 U), 25 μM.

Several values for one entry are separate records, joined by “and”; a condition that tells them apart may be missing. Equal values may be shown once. Read-outs that look alike come from different tables or passages of the source.

Turning to `O=C(O)C(Cc1c[nH]c2ccccc12)Nc1ncnc2[nH]ccc12` (stereo not shown) [Compound 4a], the IC50 in series [1] was more than 100 µM; on SARS-CoV-2 Mac1 [2], 6.1 µM. In addition, in the series on Mac1, the “Mac1 enzyme activity” value is on record as “inhibited Mac1 enzyme activity”. In [3], this compound registered a logD of -0.61. For the same compound, the “DSF assay ΔTm” value on SARS-CoV-2 Mac1 [4] worked out at 4.32 °C. Further, in the series on JHMV-nLuc, the “JHMV-nLuc replication (luciferase activity), words” value (shortened to “JHMV-nLuc replication”) is “did not affect JHMV replication”. Moreover, the “Cell viability (MTT), words” value in the series on DBT cells and in the series on L929 cells was “do not impact the viability” each time.
Take `O=C(O)C(Cc1c[nH]c2ccccc12)Nc1ncnc2[nH]ccc12` (stereo not shown) [Compound 4b]: the IC50 was more than 100 µM in series [1]; 1.66 µM and < 2 µM at SARS-CoV-2 Mac1 [2]. Moreover, in series [1] (unit not given), the “Bn-His IC50 (AlphaScreen counter screen)” value is given as “almost no inhibition”. Besides, the “DSF assay ΔTm” value on SARS-CoV-2 Mac1 [4] was found to be 4.46 °C. Besides, the “JHMV-nLuc replication” value with JHMV-nLuc is on record as “did not affect JHMV replication”.
For the compound `COC(=O)[C@H](Cc1c[nH]c2ccccc12)Nc1ncnc2[nH]ccc12` [Compound 5a], the “Concentration at which infectious virus production was inhibited” value in the series on JHMV [5] came out at 200 µM. Besides, the IC50 was more than 100 µM in [1] and 14.1 µM on SARS-CoV-2 Mac1 [2]. In addition, the “Fold change in PFU/mL, 5a versus DMSO” value was 3.17 X with JHMV [6] (passage 1 (P1)), -2.0 X in the series on JHMV [6] (passage 2 (P2)) and -1.1 X in the series with JHMV [6] (passage 3 (P3)). In [3], this compound displayed a logD of 1.5. Also, the “DSF assay ΔTm” value on SARS-CoV-2 Mac1 [4] was 0.97 °C. Besides, the “JHMV-nLuc replication” value with JHMV-nLuc is “inhibited JHMV replication”. Also, the “Cell viability (MTT), words” value in the series with DBT cells and in the series with L929 cells was “do not impact the viability” throughout.
Regarding `CC(C)OC(=O)[C@H](Cc1c[nH]c2ccccc12)Nc1ncnc2[nH]ccc12` [Compound 5c], the “Decrease in replication (infectious virus)” value in the series on JHMV-WT [7] (50 μM, L929 cells) is listed as approximately 3 logs; with JHMV-WT [8] (50 μM, DBT cells), ~ 1.5 logs. Moreover, the EC50 is 20 µM with JHMV-WT [7] (Murine coronavirus, L929, read-out: EC50, % JHMV-WT inhibition on L929 cells); 18.3 µM in the series with JHMV-WT [8]; not above 12.5 µM in series [9]; 10 to 20 µM in the series with JHMV [5] (Murine coronavirus, 0 to 50 μM on DBT, and 17 Cl-1 cells, read-out: EC50 for inhibition of virus production). For the same compound, the “Reduction of viral titers” value in series [9] (setting [11]) was 3 fold; in series [9] (setting [12]) it was 7.5 fold; in series [9] (Calu-3, absence of IFN-γ, 25 μM), ~ 2 fold. Further, the “Concentration at which infectious virus production was inhibited” value with JHMV [5] came to 25 µM. The IC50 in series [1] is 25.5 µM; at SARS-CoV-2 Mac1 [2] it was 3.66 µM. The compound further showed a logD in series [3] of 3.33. Besides, on SARS-CoV-2 Mac1 [4], the “DSF assay ΔTm” value came out at 0.76 °C. Besides, the “MERS-CoV replication” value in the series with MERS-CoV is “did not inhibit MERS-CoV replication”. The “Cell viability (MTT), words” value with Calu-3 cells, with DBT cells and with L929 cells was “do not impact the viability” each time. Besides, the “JHMV-nLuc replication” value in the series on JHMV-nLuc is given as “inhibited JHMV replication”.
`O=C(NCc1ccncc1)[C@H](Cc1c[nH]c2ccccc12)Nc1ncnc2[nH]ccc12` [Compound 6a]: the results for the IC50 (in [1]; on SARS-CoV-2 Mac1 [2]) were more than 100 µM and 8.37 µM, respectively. Also, the “DSF assay ΔTm” value on SARS-CoV-2 Mac1 [4] was 1.29 °C.
On to `O=C(NCc1ccnc(Cl)c1)[C@H](Cc1c[nH]c2ccccc12)Nc1ncnc2[nH]ccc12` [Compound 6b], for which the values for the IC50 (in series [1]; at SARS-CoV-2 Mac1 [2]) were more than 100 µM and 7.57 µM, respectively. On SARS-CoV-2 Mac1 [4], the “DSF assay ΔTm” value was 1.57 °C.
As to `NC(=O)[C@H](Cc1c[nH]c2ccccc12)Nc1ncnc2[nH]ccc12` [Compound 6c], the IC50 is more than 100 µM in series [1] and 4.04 µM at SARS-CoV-2 Mac1 [2]. Besides, the “DSF assay ΔTm” value on SARS-CoV-2 Mac1 [4] worked out at 3.06 °C.
For `O=C(NCc1ccccn1)[C@H](Cc1c[nH]c2ccccc12)Nc1ncnc2[nH]ccc12` [Compound 6d], in the series on JHMV-WT [7], the “Inhibition of MHV, dose-response” value is on record as “inhibited MHV in a dose-dependent manner”. Also, the EC50 in the series with JHMV-WT [8] was found to be 77.1 µM. For the same compound, the IC50 is 79.2 µM in series [1] and 7.58 µM at SARS-CoV-2 Mac1 [2]. Moreover, the “DSF assay ΔTm” value at SARS-CoV-2 Mac1 [4] turned out to be 1.39 °C. Also, the “JHMV-nLuc replication” value with JHMV-nLuc is on record as “inhibited light production from MHV replication in a dose-dependent manner”. Further, the “Cell viability (MTT), words” value with DBT cells and in the series on L929 cells was “do not impact the viability” each time.
As for `O=C(NCc1ccccn1)[C@@H](Cc1c[nH]c2ccccc12)Nc1ncnc2[nH]ccc12` [Compound 6e], the “Inhibition of MHV, dose-response” value in the series with JHMV-WT [7] is recorded as “inhibited MHV in a dose-dependent manner”. For the same compound, the EC50 with JHMV-WT [8] is 53.5 µM; in [9] it was not above 12.5 µM. For the same compound, the “Reduction of viral titers” value is reported as 2.7 fold in series [9] (setting [11]) and 3.8 fold in [9] (setting [12]). Besides, in series [9] (Calu-3, absence of IFN-γ, 0 to 25 μM), the “Infectious virus production” value was “did not reduce infectious virus production”. Moreover, the IC50 in [1] is 39.6 µM; at SARS-CoV-2 Mac1 [2], 4.85 µM. Further, the “DSF assay ΔTm” value on SARS-CoV-2 Mac1 [4] was found to be 1.17 °C. Also, the “MERS-CoV replication” value with MERS-CoV was “did not inhibit MERS-CoV replication”. Besides, the “Cell viability (MTT), words” value with Calu-3 cells, with DBT cells and in the series with L929 cells was “do not impact the viability” throughout. Also, the “JHMV-nLuc replication” value in the series with JHMV-nLuc is listed as “inhibited light production from MHV replication in a dose-dependent manner”.
Take `N#C[C@@]1(c2ccc3c(N)ncnn23)O[C@H](CO)[C@@H](O)[C@H]1O` [GS-441524, reference compound]: the EC50 in series [10] is approximately 0.84 µM. In addition, the “JHMV-nLuc replication” value with JHMV-nLuc is recorded as “inhibited virus replication at all concentrations”.
